According to patent publication US10426772B2, “Use of ergot alkaloids as an anthelmintic agent” (priority 2016, dated 2019):

Assays:
[1] = tested on: adult schistosomes; assay: Adult schistosome mobility assay (Example 1); assay type: cell-based, Schistosoma mansoni
[2] = biological target: Sm.5HTRL (Schistosoma mansoni, UniProt A0A173FEI8); assay: GloSensor cAMP assay, HEK293 cells transiently transfected with Sm.5HTRL; assay type: cell-based; conditions: antagonists 10 μM; 5-HT EC80 dose 0.8 μM (FIG. 8)
Description: (§1) HEK293 cells (ATCC CRL-1573.3) were cultured in DMEM supplemented with 10% fetal bovine serum (FBS), penicillin (100 units/mL), streptomycin (100 μg/mL), and L-glutamine (290 μg/mL). Cells were transiently transfected (ViaFect, Promega) as per the manufacturer's protocol at a density of 2×10^6 cells per T-25 cell-culture flask. Cells were transfected with plasmids encoding GloSensor (Promega) and either Sm.5HTR, (Smp_126730, GenBank accession number KF444051.1) or Sm.5HTRL (KX150867), both GPCRs being codon optimized for mammalian expression, or Hs.5HT7a (GenBank accession number NM_000872.4, R&D Systems) subcloned into pCS2(−). Cell culture reagents were from Invitrogen. Epitope tagged constructs were used to verify expression, and untagged constructs used for all luminescence assays.
(§2) For assays performed on adherent cells, HEK-293 cells were transferred one day post transfection to 96 well, solid white plates (Corning, cat #3917) coated with 0.01% poly-L-lysine (Sigma Aldrich) at a density of 5×10^4 cells/well in DMEM supplemented with 1% dialyzed FBS (Gibco). After overnight culture (37° C./5% CO2), media was decanted and replaced with 100 μL/well HBSS supplemented with 0.1% BSA, 20 mM HEPES (pH 7.4) and GloSensor™ reagent. Plates were allowed to equilibrate at room temperature for two hours prior to performing luminescence assays (GloMax-Multi Detection System plate reader, Promega). Conditions for individual assays were described as per figure legends. The standard assay to detect changes in cAMP utilized the F22 sensor in media supplemented with IBMX (200 μM). Ligands were added at a concentration of 20× per well for experiments (i.e., 5 μl of drug solution added to 100 μL of cells). […] For the resazurin reduction assay for cellular viability, cells were incubated with resazurin (final concentration, 10 μM) and tested ligands with fluorescence measurements (560 nm excitation/590 nm emission) made at 1.5 hours intervals.

[3] = biological target: T1, Hs.5HT7R (Homo sapiens, UniProt P34969); assay: GloSensor cAMP assay, HEK293 cells transiently transfected with Hs.5HT7R; assay type: cell-based
T1 construct: host or cells: HEK293 (ATCC CRL-1573.3), transient, pCS2(−), co-transfected with GloSensor
Description: as §1, §2
(§3) The protocol for screening is shown schematically in FIG. 5A. HEK293 cells transiently transfected with either the human 5HT7 receptor (Hs.5HT7R) or the schistosome receptor (Sm.5HTR) were exposed to test ligands in a 96-well plate format. […] Luminescence was then read at a fixed time point (t=60 minutes, FIG. 5A). Hits were assigned as compounds that evoked a ≥50% decrease in luminescence output at the fixed time sampling point (FIG. 5B).

[4] = tested on: S. mansoni schistosomules; assay: Schistosomule contractility assay; assay type: cell-based; conditions: Schistosoma mansoni, read-out: IC50, inhibition of 5-HT evoked contractions
Description: FIGS. 14A-14F. […] Effects of selected ligands on schistosomules. […] A contractile cycle is defined when a deviation of ≥20% of the average body length (dashed lines) occurs.
Biomphalaria glabrata (M-line) snails exposed to Schistosoma mansoni miracidia (Strain PR-1) were obtained from BEI Resources (Cat. number NR-21961) and cercaria were shed following exposure to light (1.5 hours). Cercaria were manually transformed into schistosomula by vortexing (3×45 seconds, each separated by 3 minutes on ice) and tails were removed by gradient centrifugation (24 mL Percoll, 4 mL 10×EMEM, 1.5 ml penicillin-streptomycin, 1 mL of 1M HEPES in 0.85% NaCl, 9.5 ml distilled water) at 500 g/15 minutes at 4° C. Supernatant containing tails was discarded, and schistosomules were resuspended in Basch media and incubated (37° C., 5% CO2) overnight before conducting mobility assays. For contractility experiments, somules were incubated in 5-HT free Basch media to resolve a basal contractility rate. […] Schistosomules were incubated in 24 well plates (about 200 schistosomules/0.5 mL media per well) for 30 minutes (37° C./5% CO2) prior to acquiring videos of schistosome movement (1 minute recordings/well) using a Nikon Coolpix 5700 camera affixed to a Nikon Eclipse TS100 microscope (10× objective). The WrmTrck plugin for ImageJ was used to quantify worm mobility (El-Shehabi et al., 2012). Briefly, the major axis of each schistosomule body length was extracted from the raw output of WrmTrck and an average length was determined for the duration of the recording. Contractions were quantified by determining the number of episodes during which the worm body length deviated from the average by over 20%. S. mansoni protocols were approved by the Iowa State University Institutional Biosafety Committee.

[5] = biological target: Sm.5HTR (Schistosoma mansoni, UniProt G4V5G4); assay type: cell-based
Description: as §1, §2, §3

[6] = tested on: S. mansoni; assay: Hepatic shift assay in infected mice; assay type: in vivo, Schistosoma mansoni; conditions: intraperitoneal, ergotamine 95, praziquantel 100, methylergometrine 50, lisuride 10, dihydroergotoxine 60 mg/kg, euthanized three hours later
Description: Female Swiss Webster mice were exposed to 200 S. mansoni cerceria (NMRI strain) at between 4-6 weeks old. For hepatic shift assays, infections were allowed to mature to 7 weeks, at which point mice were given test compounds by intraperitoneal injection and euthanized […]. Compounds were solubilized in 50 μL DMSO, and diluted in 200 μL 5% w/v trappsol (Cyclodextrin Technologies Development, THPB-p-31 g)+saline (NaCl 0.9%) solution. Immediately after being euthanized, mice were dissected to remove the liver from the portal vein, and the number of worms recovered from the portal vein, mesenteries and liver was recorded for each mouse.
Several experiments using a murine model of schistosomiasis were carried out in order to test the anthelmintic efficacy of Sm.5HTR ligands in vivo. First, the acute effect of drugs were assessed using a “heptic-shift” assay; mature parasites normally reside within the mesenteric vasculature, and upon exposure to anthelmintics they dislodge and are swept to the liver^12,13 where they may be cleared from the host^14 (FIG. 20B-F).
Given that the current anthelmintic therapy, praziquantel, disrupts worms and results in a rapid shift from the mesenteric vasculature to the liver (Melhorn et al., 1981) (FIG. 20B-F), it was hypothesized that Sm.5HTR ligands that disrupt parasite movement would cause a similar hepatic shift. Compounds were delivered by intraperitoneal injection and mice were euthanized three hours later in order to quantify the number of worms found in the mesentaries, portal vein or liver.

[7] = tested on: S. mansoni; assay: Curative efficacy against schistosome infection in mice; assay type: in vivo, Schistosoma mansoni; conditions: one week
Description: Assays testing the curative efficacy of compounds against schistosome infection were performed on mice 6 weeks after exposure to cerceria. Drugs were dosed as follows. Ergotamine (95 mg/kg) was solubilized in 50 μL DMSO and diluted in 200 μL trappsol-saline and delivered by intraperitoneal injection twice a day for one week. Praziquantel (50 mg/kg) was similarly solubilized and injected intraperitoneally once a day for one week. The negative control cohort was given twice daily injections of DMSO (50 μL) added to 200 μL trappsol-saline solution. Mice were weighed and euthanized at 49 days post infection. Worms were harvested and counted as in the hepatic shift assay. Spleen and livers were weighed, and a segment of intestine was excised from the most distal region of the rectum to 10 cm above the cecum. The small and large intestines were separated by cutting immediately above and below the cecum. Each was cut lengthwise to expose the lumen and thoroughly washed in NaCl (1.2%) to remove excrement. Intestines were laid flat with the intestinal mucosa facing upwards and clamped between two glass plates to allow visual inspection of eggs using a stereo microscope.
Mice were injected with vehicle control (dmso), the current frontline anthelmintic (praziquantel) or ergotamine twice daily for one week at starting 42 days post infection.
All animals were sacrificed 49 days post infection, and worms were harvested by dissection of the mesenteric vasculature, portal vein and liver. […] Schistosomes lay large numbers of eggs within the host mesenteric system, and these progress through stages of development over approximately 5 days which can be scored looking at samples of the intestinal mucosa (Pellegrino et al., 1965). Therefore, it is possible to visually determine whether drug treatment has arrested parasite egg laying by observing a lack of developing eggs. Sections of both the large and small intestines were examined and eggs were manually counted and scored according to developmental stage (representative stages of embryo development shown in FIG. 20H-I, top).

Sm.5HTR, sequence (G4V5G4 entry or part of it): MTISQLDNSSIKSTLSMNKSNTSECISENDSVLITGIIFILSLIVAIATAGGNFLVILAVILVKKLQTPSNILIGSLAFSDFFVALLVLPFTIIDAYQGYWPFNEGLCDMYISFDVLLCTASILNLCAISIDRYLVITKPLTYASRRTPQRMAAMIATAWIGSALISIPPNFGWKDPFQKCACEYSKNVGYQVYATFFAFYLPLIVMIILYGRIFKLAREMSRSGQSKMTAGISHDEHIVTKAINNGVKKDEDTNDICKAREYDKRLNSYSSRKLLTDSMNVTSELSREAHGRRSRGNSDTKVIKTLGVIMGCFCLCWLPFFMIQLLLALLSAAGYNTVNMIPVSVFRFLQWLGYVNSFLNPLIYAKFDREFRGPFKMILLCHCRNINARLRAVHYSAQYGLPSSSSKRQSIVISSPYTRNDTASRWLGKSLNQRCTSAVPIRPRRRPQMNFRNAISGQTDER
T1 sequence (P34969 1-445 isoform P34969-2): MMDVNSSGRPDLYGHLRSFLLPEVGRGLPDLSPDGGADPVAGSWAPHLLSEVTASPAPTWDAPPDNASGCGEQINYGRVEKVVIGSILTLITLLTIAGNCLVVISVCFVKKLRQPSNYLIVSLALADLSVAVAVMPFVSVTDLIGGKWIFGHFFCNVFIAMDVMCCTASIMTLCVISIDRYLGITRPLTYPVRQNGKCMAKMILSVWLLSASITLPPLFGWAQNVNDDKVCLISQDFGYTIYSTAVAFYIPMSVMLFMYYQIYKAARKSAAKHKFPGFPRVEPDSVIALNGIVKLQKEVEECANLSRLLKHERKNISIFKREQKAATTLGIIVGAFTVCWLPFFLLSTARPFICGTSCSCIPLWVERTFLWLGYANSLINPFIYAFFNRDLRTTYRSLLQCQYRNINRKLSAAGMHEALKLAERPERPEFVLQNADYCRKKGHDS
Sm.5HTRL, sequence (A0A173FEI8 entry or part of it): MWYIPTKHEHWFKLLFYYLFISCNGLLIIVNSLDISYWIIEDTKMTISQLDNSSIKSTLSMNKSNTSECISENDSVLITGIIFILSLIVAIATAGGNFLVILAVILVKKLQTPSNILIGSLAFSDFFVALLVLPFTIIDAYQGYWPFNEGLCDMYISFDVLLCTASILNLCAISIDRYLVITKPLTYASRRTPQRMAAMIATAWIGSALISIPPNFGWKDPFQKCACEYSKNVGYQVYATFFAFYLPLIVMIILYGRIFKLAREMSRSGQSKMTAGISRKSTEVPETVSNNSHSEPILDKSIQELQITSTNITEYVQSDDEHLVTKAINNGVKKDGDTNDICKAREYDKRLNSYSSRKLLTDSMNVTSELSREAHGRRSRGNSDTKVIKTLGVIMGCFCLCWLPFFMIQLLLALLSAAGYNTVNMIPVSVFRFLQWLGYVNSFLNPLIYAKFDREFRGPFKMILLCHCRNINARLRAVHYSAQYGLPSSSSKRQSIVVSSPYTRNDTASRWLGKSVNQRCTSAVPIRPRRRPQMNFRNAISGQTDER

## COc1cc2c(cc1OC)[C@@H]1Cc3ccc(OC)c(OC)c3CN1CC2 [rotundine]
[1]; 5-HT 100 μM, male and female worms (FIG. 15G-I)
  effect on 5-HT stimulated movement of adult worms: inhibited the 5-HT evoked increases in worm movement
[1]; no 5-HT, male and female worms (FIG. 15D-F)
  effect on basal movement of adult worms: markedly inhibited worm movements at rest
[2]
  inhibition of 5-HT evoked cAMP generation through Sm.5HTRL: inhibited 5-HT evoked cAMP generation through Sm.5HTRL
[3]; concentrations up to 50 μM
  effect on Hs.5HT7: lacking any effect
[3]; inhibition of cAMP generation
  potency (IC50) at Hs.5HT7R, lower right quadrant of FIG. 13: supra-μM potency
[4]
  IC50: ≤ 1000 nM
[5]; antagonism of 5-HT evoked cAMP, FIGS. 7, 12, 13
  selectivity Sm.5HTR versus Hs.5HT7R (IC50 (Hs.5HT7R)/IC50 (Sm.5HTR)), in words: clear selectivity for Sm.5HTR
[5]; inhibition of cAMP generation
  potency (IC50) at Sm.5HTR, lower right quadrant of FIG. 13: sub-μM potency
[5]; read-out: IC50, antagonism of 5-HT evoked cAMP generation at Sm.5HTR, 5-HT at EC80, F22 sensor, IBMX
  IC50: 701 ± 207 nM

## O=C(C1CCCCC1)N1CC(=O)N2CCc3ccccc3C2C1 (stereo not shown) [PZQ, praziquantel]
[6]
  % of worm burden found in the liver: 68.8±14.1%
[7]; infected mice, praziquantel 50 mg/kg i.p. once a day
  protection from liver and spleen enlargement: no significant protection from liver and spleen enlargement
[7]; mice, ergotamine 95 mg/kg twice a day, praziquantel 50 mg/kg once a day, i.p., versus vehicle control
  decrease in intestinal egg counts: 99%
[5]; doses that would convey an antiparasitic effect, FIGS. 10A and E
  modulation of Sm.5HTR receptor activity: did not reveal any modulation of receptor activity
